According to US20110195147A1, “IRON SOURCE PRODUCT IN THE FORM OF CAPSULES AND PROCESS FOR THEIR PREPARATION” (AB-BIOTICS S.A., priority 2008, published 2011):

Test system: HELA cell line
Experiment: Capsule cytotoxicity, EZ4U cell proliferation and cytotoxicity assay
Conditions: for % Viability 24 h: 24 h incubation; for % Viability 72 h: 72 h incubation
Experimental: The test involved incubating cells from the HELA cell line with the substances against which the cytotoxicity was going to be tested, this test being commonly used as a way to check the toxicity. The tested compounds included the capsules, as well as their main constituents separately: the iron salt used in the capsules (ferric saccharate), and sodium alginate. A negative control, which contained HELA growth medium alone, was also prepared, and used as the reference growth.
The test media were prepared under sterile conditions. Capsules prepared as in Example 1 (Capsule 0; batch 2 of Example 3) were sterilised in an autoclave (20 min, 110° C.). Using sterile material, 72 mg of capsules (capsules medium), 17 mg of ferric saccharate (iron salt medium) and 18 mg of sodium alginate (alginate medium) were each dissolved in 50 mL of HELA growth medium. […] 1:1, 1:10 and 1:100 dilutions of each of the test media were prepared by diluting the following amounts of capsules, iron salt or alginate medium with fresh HELA growth medium: • 1:1 20 μL+0 μL fresh HELA medium • 1:10 2 μL+18 μL fresh HELA medium • 1:100 0.2 μL+19.8 μL fresh HELA medium
3500 HeLa cells were cultured in 36 wells of two 96 well plates: 9 control wells and 27 for triplicates of 3 concentrations of 3 products. Medium was added to each well up to 100 μL. The cells were incubated at 37° C. for 24 h. 20 μL of each test media and 80 μL of fresh medium were added to each well. In the controls only 100 μL of fresh medium were added. One of the plates was incubated for 24 h and the other one for 72 h. The viability of the cells was measured after 24 and 72 h of incubation using the EZ4U non-radioactive cell proliferation and cytotoxicity assay (Biomedica Medizinproducte GmbH).
The results were expressed as percentage of growth with respect to the controls, i. e. as the percentage of viability, which is computed as the number of living cells in any of the test solutions (capsules, ferric saccharate or sodium alginate) divided by the number of living cells in the negative control, and expressed as percentage.

Substance	% Viability 24 h (dilution 1:1, relative to negative control)	% Viability 24 h (dilution 1:10)	% Viability 24 h (dilution 1:100)	% Viability 72 h (dilution 1:1)	% Viability 72 h (dilution 1:10)	% Viability 72 h (dilution 1:100)	cytotoxicity (in words)
ferric saccharate [Iron salt]	76.3% ± 9.7	101.7% ± 8.5	95.7% ± 3.2	66.8% ± 23.0	62.0% ± 15.7	68.7% ± 15.3	–
sodium alginate	–	–	–	–	–	–	No toxicity was observed
